Measured values published in paper PMC8305768, “Design, Synthesis and Antiparasitic Evaluation of Click Phospholipids” (Molecules, 2021).
Counter-ions that a name gives are not always drawn.

Legend:
[1] = test system: L. infantum (MHOM/MA/67/ITMAP-263) intracellular amastigotes; assay: Activity against L. infantum MHOM/MA/67/ITMAP-263 intramacrophage amastigotes (luciferase, THP-1); format: cell-based, Leishmania infantum; conditions: for Selectivity Index CC50/IC50: CC50 THP-1 / IC50 L. infantum MHOM/MA/67/ITMAP-263; for IC50 / inhibition at 10 µM / inhibition at 1 µM: Leishmania infantum; for IC50: THP-1, 72 h, read-out: L. infantum (MHOM/MA/67/ITMAP-263) Intracellular Amastigotes IC50 ± SD; for inhibition at 10 µM / inhibition at 1 µM: THP-1; for inhibition at 10 µM: read-out: Mean % Inhibition ± SD at 10μM; for inhibition at 1 µM: read-out: Mean % Inhibition ± SD at (1 μM) (converted)
Description: A cloned line of L. infantum (MOM/ MA671TMAP263) promastigotes were maintained in RPMI 1640 medium supplemented with 10% heat-inactivated foetal bovine serum (FBS), 2 mM L-glutamine, 20 mM HEPES and 1% Penn/Strep. Maintenance of promastigotes was done in T-25 flasks at 26 °C by subpassage at […] every 5−6 days. L. infantum axenic amastigotes expressing episomal luciferase were maintained in MAA/20 (axenic amastigote medium) at 37 °C under a 5% CO2 environment with subpassages every 5 days. LUC-positive parasites were selected by addition of geneticin sulphate (G418) to the culture at 60 μg/mL.
The efficacy of compounds against L. infantum intracellular amastigotes was determined according to the literature with slight modifications. Briefly, 1 × 10^6 THP-1 cell/mL were seeded in a 96 well flat bottom plate (100 µL/well) and differentiated into macrophages by addition of 20 ng/mL of phorbol-myristate 13-acetate (PMA, Sigma, Saint Louis, MI, USA) for 18 h, followed by replacement with fresh medium for 24 h. Then these cells were infected with luciferase-expressing L. infantum axenic amastigotes in a macrophage:amastigotes ratio of 1:10 for 4 h at 37 °C, 5% CO2. Non-internalized parasites were washed and compounds were added at different concentrations in a final volume of 100 µL. After 72 h of incubation, the media was substituted by 100 µL of PBS. Then of 25 µL of Glo-lysis buffer from the Steady-Glo Luciferase Assay System (Promega, Madison, WI, USA) was added mixed and incubated for 10 min with agitation at 100 rpm. Finally, 30 µL of the Steady-Glo reagent (Promega, Madison, WI, USA) was then added to the plate and was incubated for 15 min with agitation at 100 rpm and then the content of each well was transferred to white-bottom 96-well plates. Luminescence intensity was read using a Synergy 2 Multi-Mode Reader (Biotek, Winooski, VT, USA). The antileishmanial effect was evaluated by the determination of the IC50 value (concentration required to inhibit growth in 50%) and calculated by the non-linear regression analysis using GraphPad Prism version 8.1.1 for Windows (GraphPad Software, San Diego CA, USA).

[2] = target: T1, CYP2C19 (Homo sapiens, UniProt P33261); assay: Cytochrome P450 inhibition assay (P450-Glo) CYP2C19; format: in vitro ADME; conditions: compounds 10 μM; miltefosine 10 μM or 1 μM
T1 construct: purchased Corning Inc; host or cells: baculovirus-infected insect cells
T1 sequence (P33261 whole entry): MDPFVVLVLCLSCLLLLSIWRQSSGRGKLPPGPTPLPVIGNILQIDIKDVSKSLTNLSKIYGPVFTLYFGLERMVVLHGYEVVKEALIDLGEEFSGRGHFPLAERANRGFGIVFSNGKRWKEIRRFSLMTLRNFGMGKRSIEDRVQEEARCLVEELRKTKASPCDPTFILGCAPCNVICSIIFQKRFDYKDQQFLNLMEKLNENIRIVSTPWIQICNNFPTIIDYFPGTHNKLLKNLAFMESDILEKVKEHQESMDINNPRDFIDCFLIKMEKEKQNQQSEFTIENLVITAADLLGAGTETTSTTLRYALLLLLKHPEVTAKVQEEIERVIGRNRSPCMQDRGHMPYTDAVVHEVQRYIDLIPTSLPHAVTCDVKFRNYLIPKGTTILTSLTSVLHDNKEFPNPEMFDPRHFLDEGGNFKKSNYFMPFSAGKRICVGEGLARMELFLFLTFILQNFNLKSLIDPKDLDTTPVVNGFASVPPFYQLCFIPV
Description: (§1) Cytochrome (CYP) P450 inhibition assay: These assays made use of microsomal preparations of CYP450 (1A2, 2C9, 2C19, 2D6 and 3A4) from baculovirus-infected insect cells (Corning Inc., Corning, NY, USA) and cytochrome c reductase (and cytochrome b5 for CYP450 3A4). For detection of CYP450 activity, the luminescence-based P450-Glo (Promega Corp., Madison, WI, USA) assay system was used that contained a luminogenic CYP450 substrate, lyophilized luciferin detection reagent and reconstitution buffer. The substrates were luciferin derivatives of CYP450-specific substrates that produce (4S)-4,5-dihydro-2-(6-hydroxybenzothiazolyl)-4-thiazolecarboxylic acid (D-luciferin) after cleavage by CYP450 (CYP450 3A4, luciferin-IPA; CYP450 2C19, luciferin-H EGE; CYP450 2C9, luciferin-H; CYP450 2D6, luciferin-ME EGE; CYP450 1A2, luciferin-1A2). CYP450 reactions were initiated by addition of the NADPH regeneration system to the enzyme–substrate mixture with the luciferin detection reagent stopping the reaction and the D-luciferin being converted to oxyluciferin under the production of light being proportional to the CYP450 activity. The CYP450 assays were performed using the Tecan Fluent liquid-handling automation platform (Tecan Group Ltd., Mannedorf, Switzerland) in the 384-well assay format. Compounds were added into an empty 384-well plate (100 nL/well in 1% v/v DMSO) using the Echo 550 Liquid Handler followed by the addition of 5 μL/well of the CYP450/substrate mixture and incubation for 30 min at 37 °C, after which the reaction was initiated by the addition of the 5 μL/well NADPH regeneration system. After a further 30-min incubation at 37 °C, the CYP450 reaction was stopped and the luciferase reaction was simultaneously initiated by addition of 10 μL/well of luciferin detection reagent, followed by an additional 30-min incubation at 37 °C. The luminescence signal was detected using an Infinite M1000 PRO plate reader (Tecan Group Ltd., Mannedorf, Switzerland). The NCs yielded 0% inhibition (1% v/v DMSO) and standard CYP450 specific inhibitors were used as positive controls, yielding 100% inhibition (CYP450 1A2, alpha-naphthoflavone; CYP450 2C9, sulfaphenazole; CYP450 2C19, troglitazone; CYP450 2D6, quinidine; CYP450 3A4, ketoconazole).
(§2) Data analysis: The screening data were obtained in triplicate and analysed using ActivityBase (IDBS, Guildford, UK), and outlier elimination in the control wells was performed using the 3-sigma method. Unless stated, dose–response experiments were performed in the 11-point format with the IC50 value, Hill slope, minimum signal and maximum signal for each dose–response curve obtained using a four-parameter logistic fit in the XE module of ActivityBase (IDBS).

[3] = target: T2, CYP1A2 (Homo sapiens, UniProt P05177); assay: Cytochrome P450 inhibition assay (P450-Glo) CYP1A2; format: in vitro ADME; conditions: compounds 10 μM; miltefosine 10 μM or 1 μM
T2 construct: purchased Corning Inc; host or cells: baculovirus-infected insect cells
T2 sequence (P05177 2-516 limits assumed): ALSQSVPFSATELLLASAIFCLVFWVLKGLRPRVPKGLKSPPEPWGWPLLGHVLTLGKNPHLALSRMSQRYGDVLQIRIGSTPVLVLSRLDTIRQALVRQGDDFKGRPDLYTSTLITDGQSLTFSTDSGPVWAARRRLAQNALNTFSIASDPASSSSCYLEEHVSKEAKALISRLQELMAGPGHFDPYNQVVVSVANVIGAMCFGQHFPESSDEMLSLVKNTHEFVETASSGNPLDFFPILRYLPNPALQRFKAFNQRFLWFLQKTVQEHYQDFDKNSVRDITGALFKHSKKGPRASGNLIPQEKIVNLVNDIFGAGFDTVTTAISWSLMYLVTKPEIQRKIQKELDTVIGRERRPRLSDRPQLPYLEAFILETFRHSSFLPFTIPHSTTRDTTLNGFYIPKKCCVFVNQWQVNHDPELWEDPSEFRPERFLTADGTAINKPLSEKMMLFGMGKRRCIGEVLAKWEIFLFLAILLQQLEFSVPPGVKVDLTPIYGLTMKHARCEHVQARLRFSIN
Description: as §1, §2

Row | SMILES | Selectivity Index CC50/IC50 [1] | IC50 [1] | inhibition at 10 µM ([1]; 10 μM, 72 h, N.A. = inactive) | % inhibition ± SD at 10 μΜ CYP2C19 [2] | % inhibition ± SD at 10 μΜ CYP1A2 [3] | Mean % Inhibition ± SD at 10μM ([1]; 10 μM, 72 h, N.A. = inactive) | inhibition at 1 µM ([1]; 72 h)
1 | CCCCCc1cn(CCCCCCCCCCCOP(=O)([O-])OCC[N+](C)(C)C)nn1 [Compound 25, 11-(4-pentyl-1H-1,2,3-triazol-1-yl)undecyl (2-(trimethylammonio)ethyl) phosphate inner salt] | >3 | 34.3 ± 19.4 µM | 32 ± 19% | –32.10% | –20.41% |  | 
2 | C[N+](C)(C)CCOP(=O)([O-])OCCCCCCCCCCCn1cc(CC2CCCC2)nn1 [Compound 28, 11-(4-(cyclopentylmethyl)-1H-1,2,3-triazol-1-yl)undecyl (2-(trimethylammo nio)ethyl) phosphate inner salt] |  |  |  | –32.71% | –13.84% | inactive | 
3 | C[N+](C)(C)CCOP(=O)([O-])OCCCCCCCCCCCn1cc(CC2CCCCC2)nn1 [Compound 29, 11-(4-(cyclohexylmethyl)-1H-1,2,3-triazol-1-yl)undecyl (2-(trimethylammonio)ethyl) phosphate inner salt] |  |  | 43 ± 1% | –28.74% | –28.56% |  | 
4 | C[N+](C)(C)CCOP(=O)([O-])OCCCCCn1cc(CCCCCCCCNC(=O)OCc2ccccc2)nn1 [Compound 31, 5-(4-(8-(((benzyloxy)carbonyl)amino)octyl)-1H-1,2,3-triazol-1-yl)pentyl (2-(trimethylammonio)ethyl) phosphate inner salt] |  |  |  | –2.38% | 13.80% |  | 
5 | C[N+](C)(C)CCOP(=O)([O-])OCCCCCCCCCCCn1cc(CCCCCCCCNC(=O)OCc2ccccc2)nn1 [Compound 32, 11-(4-(8-(((benzyloxy)carbonyl)amino)octyl)-1H-1,2,3-triazol-1-yl)undecyl (2-(trimethylammonio)ethyl) phosphate inner salt] |  |  | 5 ± 18% |  | 12.02% |  | 
6 | C[N+](C)(C)CCCOP(=O)([O-])OCCCCCCCCCCCn1cc(CC2CCCCC2)nn1 [Compound 33, 11-(4-(cyclohexylmethyl)-1H-1,2,3-triazol-1-yl)undecyl (3-(trimethylammonio)propyl) phosphate inner salt] |  |  | 12 ± 5% | 4.22% | 15.23% |  | 
7 | C[N+](C)(C)CCOP(=O)([O-])OCCCCCCCCCCCn1cc(CCCCCCCCC(=O)O)nn1 [Compound 34, 11-(4-(8-carboxyoctyl)-1H-1,2,3-triazol-1-yl)undecyl (2-(trimethylammonio)ethyl) phosphate inner salt] |  |  | 10 ± 9% | 4.89% | –3.73% |  | 
8 | C[N+](C)(C)CCOP(=O)([O-])OCCCCCn1cc(CCCCCCCCN)nn1 [Compound 35, 5-(4-(8-aminooctyl)-1H-1,2,3-triazol-1-yl)pentyl (2-(trimethylammonio)ethyl) phosphate inner salt] |  |  |  | –3.09% | 9.42% |  | 
9 | CCCCCCCCCCc1cc(CCCCCCCCCCOP(=O)([O-])OCC[N+](C)(C)C)no1 [Compound 41, 10-(5-decylisoxazol-3-yl)decyl (2-(trimethylammonio)ethyl) phosphate inner salt] |  |  | 93.7 ± 10% | 5.65% | 10.86% |  | 
10 | CCCCCCCCc1noc(CCCCCOP(=O)([O-])OCC[N+](C)(C)C)n1 [Compound 53, 5-(3-octyl-1,2,4-oxadiazol-5-yl)pentyl (2-(trimethylammonio)ethyl) phosphate inner salt] |  |  | 98.4 ± 1% | –17.22% | 20.03% |  | 34.6%
11 | CCCCCCCCc1noc(CCCCCCCCCCOP(=O)([O-])OCC[N+](C)(C)C)n1 [Compound 54, 10-(3-octyl-1,2,4-oxadiazol-5-yl)decyl (2-(trimethylammonio)ethyl) phosphate inner salt] | 13.6 | 0.8 ± 0.18 µM | 100.4 ± 1% | 10.43% | 9.37% |  | 67.1%
12 | CCCCCCCc1nnc(CCCCCCCCCCOP(=O)([O-])OCC[N+](C)(C)C)o1 [Compound 65, 10-(5-heptyl-1,3,4-oxadiazol-2-yl)decyl (2-(trimethylammonio)ethyl) phosphate inner salt] |  |  | 92.9 ± 5% | –1.75% | 18.05% |  | 4.8%
13 | CCCCCCCCCCCc1nnc(CCCCCCCCCCOP(=O)([O-])OCC[N+](C)(C)C)o1 [Compound 66, 2-(trimethylammonio)ethyl (10-(5-undecyl-1,3,4-oxadiazol-2-yl)decyl) phosphate inner salt] |  |  | 94.2 ± 3% | 23.97% | 12.37% |  | 3.3%
